Measured values: the supplement of paper PMC8617591

Key:
[1] = test system: Mycobacterium tuberculosis Erdman (autoluminescent); assay: total FIC90 (Loewe) at 90% inhibition, three-drug combination (log2); higher = more antagonistic
Method: (§1)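 DiaMOND equipotent three-drug combination dose responses (10 doses, 1.5- or 2-fold spacing, centred on IC90) against autoluminescent M. tuberculosis Erdman in 8 in vitro models. Read-out is OD600, or luminescence for the intracellular and dormancy models, normalised to untreated wells. Hill-fit Einf, AUC25 and GRinf are potency metrics; FIC50 and FIC90 are total Loewe fractional inhibitory concentrations as log2 (negative = synergy).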

[2] = test system: Mycobacterium tuberculosis Erdman (autoluminescent); assay: Einf, fitted maximum growth inhibition of three-drug combination (fraction); higher = stronger maximal inhibition
Method: as §1

[3] = test system: Mycobacterium tuberculosis Erdman (autoluminescent); assay: GRinf, maximum normalised growth rate inhibition (three-drug combination) (unitless (-1 to 1)); higher = less effect (negative = killing)
Method: as §1

[4] = test system: Mycobacterium tuberculosis Erdman (autoluminescent); assay: AUC25, normalised area under dose response up to IC25 (three-drug combination) (fraction (0-1)); higher = more potent at low dose
Method: as §1

[5] = test system: Mycobacterium tuberculosis Erdman (autoluminescent); assay: total FIC50 (Loewe) at 50% inhibition, three-drug combination (log2); higher = more antagonistic
Method: as §1

[6] = in vitro model: acidic pH 5.7, time point: terminal (~4-5 doublings, model-specific)
[7] = in vitro model: butyrate, time point: terminal (~4-5 doublings, model-specific)
[8] = in vitro model: cholesterol-high 0.2 mM, time point: terminal (~4-5 doublings, model-specific)
[9] = in vitro model: dormancy (butyrate + nitrate, low O2), time point: terminal (~4-5 doublings, model-specific)
[10] = in vitro model: intracellular J774, time point: constant = terminal
[11] = in vitro model: valerate, time point: terminal (~4-5 doublings, model-specific)
[12] = in vitro model: acidic pH 5.7, time point: constant (~7 days, model-specific)
[13] = in vitro model: butyrate, time point: constant (~7 days, model-specific)
[14] = in vitro model: cholesterol 0.05 mM, time point: constant (~7 days, model-specific)
[15] = in vitro model: cholesterol 0.05 mM, time point: terminal (~4-5 doublings, model-specific)
[16] = in vitro model: cholesterol-high 0.2 mM, time point: constant (~7 days, model-specific)
[17] = in vitro model: dormancy (butyrate + nitrate, low O2), time point: constant (~7 days, model-specific)
[18] = in vitro model: standard 7H9 glycerol, time point: constant = terminal
[19] = in vitro model: valerate, time point: constant (~7 days, model-specific)

## CC[C@@H](CO)NCCN[C@@H](CC)CO [ethambutol] + CO[C@H]1/C=C/O[C@@]2(C)Oc3c(C)c(O)c4c(O)c(c(/C=N/N5CCN(C6CCCC6)CC5)c(O)c4c3C2=O)NC(=O)/C(C)=C\C=C\[C@H](C)[C@H](O)[C@@H](C)[C@@H](O)[C@@H](C)[C@H](OC(C)=O)[C@@H]1C [rifapentine] + CO[C@H]1/C=C/O[C@@]2(C)Oc3c(C)c(O)c4c(O)c(c(/C=N/N5CCN(C)CC5)c(O)c4c3C2=O)NC(=O)/C(C)=C\C=C\[C@H](C)[C@H](O)[C@@H](C)[C@@H](O)[C@@H](C)[C@H](OC(C)=O)[C@@H]1C [rifampicin]
[1]; [6]
  total FIC90: -0.673
[1]; [7]
  total FIC90: -0.469
[1]; [8]
  total FIC90: 0.613
[1]; [9]
  total FIC90: -0.687
[1]; [10]
  total FIC90: -2.2
[1]; [11]
  total FIC90: -0.823
[2]; [12]
  Einf: 0.863
[2]; [6]
  Einf: 0.966
[2]; [13]
  Einf: 0.924
[2]; [7]
  Einf: 0.965
[2]; [14]
  Einf: 0.674
[2]; [15]
  Einf: 0.884
[2]; [16]
  Einf: 0.947
[2]; [8]
  Einf: 1
[2]; [17]
  Einf: 0.854
[2]; [9]
  Einf: 0.981
[2]; [10]
  Einf: 0.964
[2]; [18]
  Einf: 0.909
[2]; [19]
  Einf: 0.889
[2]; [11]
  Einf: 0.936
[3]; [12]
  GRinf: -0.0676
[3]; [6]
  GRinf: -0.0521
[3]; [13]
  GRinf: -0.00846
[3]; [7]
  GRinf: -0.0114
[3]; [14]
  GRinf: -0.208
[3]; [15]
  GRinf: -0.0993
[3]; [16]
  GRinf: -0.442
[3]; [8]
  GRinf: -0.703
[3]; [17]
  GRinf: 0.363
[3]; [9]
  GRinf: -0.104
[3]; [10]
  GRinf: -0.359
[3]; [18]
  GRinf: 0.0838
[3]; [19]
  GRinf: 0.0114
[3]; [11]
  GRinf: 0.0132
[4]; [12]
  AUC25: 0.0788
[4]; [6]
  AUC25: 0.0407
[4]; [13]
  AUC25: 0.0871
[4]; [7]
  AUC25: 0.0718
[4]; [14]
  AUC25: 0.12
[4]; [15]
  AUC25: 0.0846
[4]; [16]
  AUC25: 0.0408
[4]; [8]
  AUC25: 0.0471
[4]; [17]
  AUC25: 0.066
[4]; [9]
  AUC25: 0.0493
[4]; [18]
  AUC25: 0.0475
[4]; [19]
  AUC25: 0.0622
[4]; [11]
  AUC25: 0.0314
[5]; [12]
  total FIC50: -0.0556
[5]; [6]
  total FIC50: 0.0683
[5]; [13]
  total FIC50: 0.0694
[5]; [7]
  total FIC50: 0.0725
[5]; [14]
  total FIC50: -0.109
[5]; [15]
  total FIC50: -0.106
[5]; [16]
  total FIC50: 0.69
[5]; [8]
  total FIC50: 0.74
[5]; [17]
  total FIC50: -0.0614
[5]; [9]
  total FIC50: 0.286
[5]; [18]
  total FIC50: 0.231
[5]; [19]
  total FIC50: -0.0551
[5]; [11]
  total FIC50: 0.133

## CC(C)/N=c1\cc2n(-c3ccc(Cl)cc3)c3ccccc3nc-2cc1Nc1ccc(Cl)cc1 [clofazimine] + CC[C@@H](CO)NCCN[C@@H](CC)CO [ethambutol] + O=[N+]([O-])c1cn2c(n1)OC[C@@H](OCc1ccc(OC(F)(F)F)cc1)C2 [pretomanid]
[1]; [6]
  total FIC90: 0.859
[1]; [7]
  total FIC90: 0.382
[1]; [8]
  total FIC90: 1.51
[1]; [9]
  total FIC90: 0.801
[1]; [10]
  total FIC90: -1.25
[1]; [11]
  total FIC90: 0.973
[2]; [12]
  Einf: 0.803
[2]; [6]
  Einf: 0.954
[2]; [13]
  Einf: 0.962
[2]; [7]
  Einf: 0.981
[2]; [14]
  Einf: 0.718
[2]; [15]
  Einf: 0.84
[2]; [16]
  Einf: 0.928
[2]; [8]
  Einf: 0.994
[2]; [17]
  Einf: 0.824
[2]; [9]
  Einf: 0.99
[2]; [10]
  Einf: 0.987
[2]; [18]
  Einf: 0.956
[2]; [19]
  Einf: 0.867
[2]; [11]
  Einf: 0.92
[3]; [12]
  GRinf: -0.436
[3]; [6]
  GRinf: -0.21
[3]; [13]
  GRinf: -0.142
[3]; [7]
  GRinf: -0.138
[3]; [14]
  GRinf: -0.577
[3]; [15]
  GRinf: -0.0173
[3]; [16]
  GRinf: -0.371
[3]; [8]
  GRinf: -0.857
[3]; [17]
  GRinf: 0.446
[3]; [9]
  GRinf: -0.258
[3]; [10]
  GRinf: -0.321
[3]; [18]
  GRinf: -0.273
[3]; [19]
  GRinf: -0.308
[3]; [11]
  GRinf: 0.0599
[4]; [12]
  AUC25: 0.129
[4]; [6]
  AUC25: 0.0966
[4]; [13]
  AUC25: 0.103
[4]; [7]
  AUC25: 0.0799
[4]; [14]
  AUC25: 0.136
[4]; [15]
  AUC25: 0.131
[4]; [16]
  AUC25: 0.102
[4]; [8]
  AUC25: 0.0873
[4]; [17]
  AUC25: 0.106
[4]; [9]
  AUC25: 0.127
[4]; [18]
  AUC25: 0.126
[4]; [19]
  AUC25: 0.14
[4]; [11]
  AUC25: 0.0932
[5]; [12]
  total FIC50: 0.449
[5]; [6]
  total FIC50: 0.46
[5]; [13]
  total FIC50: 0.411
[5]; [7]
  total FIC50: 0.442
[5]; [15]
  total FIC50: 2.15
[5]; [16]
  total FIC50: 1.08
[5]; [8]
  total FIC50: 0.97
[5]; [17]
  total FIC50: -0.084
[5]; [9]
  total FIC50: -0.114
[5]; [18]
  total FIC50: -0.284
[5]; [19]
  total FIC50: 0.805
[5]; [11]
  total FIC50: 0.355

## COc1nc2ccc(Br)cc2cc1[C@@H](c1ccccc1)[C@@](O)(CCN(C)C)c1cccc2ccccc12 [bedaquiline] + CC(=O)NC[C@H]1CN(c2ccc(N3CCOCC3)c(F)c2)C(=O)O1 [linezolid] + COc1c(N2C[C@@H]3CCCN[C@@H]3C2)c(F)cc2c(=O)c(C(=O)O)cn(C3CC3)c12 [moxifloxacin]
[1]; [6]
  total FIC90: -0.0182
[1]; [13]
  total FIC90: 0.695
[1]; [7]
  total FIC90: 0.691
[1]; [15]
  total FIC90: -0.532
[1]; [16]
  total FIC90: 0.835
[1]; [8]
  total FIC90: 1.04
[1]; [17]
  total FIC90: 0.891
[1]; [9]
  total FIC90: 1.09
[1]; [10]
  total FIC90: 1.32
[1]; [18]
  total FIC90: 0.63
[1]; [11]
  total FIC90: 0.911
[2]; [12]
  Einf: 0.833
[2]; [6]
  Einf: 0.934
[2]; [13]
  Einf: 0.936
[2]; [7]
  Einf: 0.968
[2]; [14]
  Einf: 0.758
[2]; [15]
  Einf: 0.966
[2]; [16]
  Einf: 0.992
[2]; [8]
  Einf: 1
[2]; [17]
  Einf: 0.921
[2]; [9]
  Einf: 0.989
[2]; [10]
  Einf: 0.862
[2]; [18]
  Einf: 0.971
[2]; [19]
  Einf: 0.902
[2]; [11]
  Einf: 0.947
[3]; [12]
  GRinf: -0.483
[3]; [6]
  GRinf: -0.2
[3]; [13]
  GRinf: -0.0894
[3]; [7]
  GRinf: -0.0714
[3]; [14]
  GRinf: -0.288
[3]; [15]
  GRinf: -0.449
[3]; [16]
  GRinf: -0.761
[3]; [8]
  GRinf: -0.836
[3]; [17]
  GRinf: 0.149
[3]; [9]
  GRinf: -0.0826
[3]; [10]
  GRinf: -0.242
[3]; [18]
  GRinf: -0.102
[3]; [19]
  GRinf: -0.144
[3]; [11]
  GRinf: -0.0335
[4]; [12]
  AUC25: 0.108
[4]; [6]
  AUC25: 0.0466
[4]; [13]
  AUC25: 0.0949
[4]; [7]
  AUC25: 0.0643
[4]; [14]
  AUC25: 0.131
[4]; [15]
  AUC25: 0.144
[4]; [16]
  AUC25: 0.11
[4]; [8]
  AUC25: 0.108
[4]; [17]
  AUC25: 0.0831
[4]; [9]
  AUC25: 0.0363
[4]; [18]
  AUC25: 0.0873
[4]; [19]
  AUC25: 0.118
[4]; [11]
  AUC25: 0.0703
[5]; [12]
  total FIC50: 0.265
[5]; [6]
  total FIC50: 0.43
[5]; [13]
  total FIC50: 0.691
[5]; [7]
  total FIC50: 0.693
[5]; [14]
  total FIC50: 0.224
[5]; [15]
  total FIC50: -0.0261
[5]; [16]
  total FIC50: 0.524
[5]; [8]
  total FIC50: 0.657
[5]; [17]
  total FIC50: 0.916
[5]; [9]
  total FIC50: 1.62
[5]; [18]
  total FIC50: 0.152
[5]; [19]
  total FIC50: 0.407
[5]; [11]
  total FIC50: 0.697
